SMILES strings stand for the structures.

The target in one assay is human NK3 receptor (Homo sapiens (Human), UniProt P29371). The experiment in a line: [3H]SR142801 competition binding assay.
Sequence of human NK3 receptor (P29371 whole entry): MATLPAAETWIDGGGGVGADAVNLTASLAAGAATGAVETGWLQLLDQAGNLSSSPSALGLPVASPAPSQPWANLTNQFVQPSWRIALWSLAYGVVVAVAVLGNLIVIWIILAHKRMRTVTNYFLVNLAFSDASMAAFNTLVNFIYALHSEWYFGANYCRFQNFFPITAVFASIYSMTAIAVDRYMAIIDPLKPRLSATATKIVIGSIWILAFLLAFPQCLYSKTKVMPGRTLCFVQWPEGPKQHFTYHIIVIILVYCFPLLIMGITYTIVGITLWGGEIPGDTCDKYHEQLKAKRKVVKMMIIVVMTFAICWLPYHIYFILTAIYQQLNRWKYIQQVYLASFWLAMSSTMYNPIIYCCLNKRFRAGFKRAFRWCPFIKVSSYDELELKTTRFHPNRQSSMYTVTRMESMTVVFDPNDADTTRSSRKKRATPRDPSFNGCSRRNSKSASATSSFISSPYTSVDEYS
Details: not given
As to the method:
hNK3 receptor binding experiment were performed using [^3H]SR142801 (Catalog No. TRK1035, specific activity: 74.0 Ci/mmol, Amersham, GE Healthcare UK limited, Buckinghamshire, UK) and membrane isolated from HEK293 cells transiently expressing recombinant human NK3 receptor. After thawing, the membrane homogenates were centrifuged at 48,000×g for 10 min at 4° C., the pellets were resuspended in the 50 mM Tris-HCl, 4 mM MnCl2, 1 μM phosphoramidon, 0.1% BSA binding buffer at pH 7.4 to a final assay concentration of 5 μg protein/well. […] At the end of the incubation, membranes were filtered onto unitfilter (96-well white microplate with bonded GF/C filter preincubated 1 h in 0.3% PEI+0.3% BSA, Packard BioScience, Meriden, Conn.) with a Filtermate 196 harvester (Packard BioScience) and washed 4 times with ice-cold 50 mM Tris-HCl, pH 7.4 buffer. Nonspecific binding was measured in the presence of 10μM SB222200 for both radioligands. The radioactivity on the filter was counted (5 min) on a Packard Top-count microplate scintillation counter with quenching correction after addition of 45 μl of microscint 40 (Canberra Packard S.A., Ziirich, Switzerland) and shaking for 1 h. Inhibition curves were fitted according to the Hill equation: y=100/(1+(x/IC50), where nH=slope factor using Excel-fit 4 software (Microsoft). IC50 values were derived from the inhibition curve and the affinity constant (Ki) values were calculated using the Cheng-Prussoff equation Ki =IC50/(1+[L]/KD) where [L] is the concentration of radioligand and KD is its dissociation constant at the receptor, derived from the saturation isotherm. All experiments were performed in duplicate and the mean±standard error (SEM) of the individual Ki values was calculated.
`CN(C(=O)Oc1ccc(F)cc1)[C@@]1(C)CN(C(=O)C2CCN(c3ccc(F)cn3)CC2)C[C@@H]1c1ccc(Cl)cc1` (racemic) [Example 12, rac-[(3R,4S)-4-(4-Chloro-phenyl)-1-(5′-fluoro-3,4,5,6-tetrahydro-2H-[1,2′]bipyridinyl-4-carbonyl)-3-methyl-pyrrolidin-3-yl]-methyl-carbamic acid 4-fluoro-phenyl ester] registered a Ki of 0.0076 µM. `CN(C(=O)Oc1ccc(F)cc1)[C@@H]1CN(C(=O)C2CCN(c3ccc(C#N)cc3)CC2)C[C@@]1(C)c1ccc(Cl)cc1` (racemic) [Example 22, rac-{(3S,4R)-4-(4-Chloro-phenyl)-1-[1-(4-cyano-phenyl)-piperidine-4-carbonyl]-4-methyl-pyrrolidin-3-yl}-methyl-carbamic acid 4-fluoro-phenyl ester] registered a Ki of 0.0105 µM. In turn, `CC(=O)c1ccc(N2CCC(C(=O)N3C[C@@H](N(C)C(=O)Oc4ccc(F)cc4)[C@](C)(c4ccc(Cl)cc4)C3)CC2)nc1` (racemic) [Example 31, rac-[(3S,4R)-1-(5′-Acetyl-3,4,5,6-tetrahydro-2H-[1,2′]bipyridinyl-4-carbonyl)-4-(4-chloro-phenyl)-4-methyl-pyrrolidin-3-yl]-methyl-carbamic acid 4-fluoro-phenyl ester] came in with a Ki of 0.0081 µM.

Still in this assay, the particulars now being: membranes from HEK293 cells transiently expressing recombinant human NK3 receptor; [3H]SR142801; Ki from IC50 by Cheng-Prussoff; read-out: Ki (uM) hNK3.
With `CN(C(=O)Oc1ccc(F)cc1)[C@@H]1CN(C(=O)C2CCN(c3ccc(C#N)cn3)CC2)C[C@@]1(C)c1ccc(Cl)cc1` (racemic) [Example 30, rac-[(3S,4R)-4-(4-Chloro-phenyl)-1-(5′-cyano-3,4,5,6-tetrahydro-2H-[1,2′]bipyridinyl-4-carbonyl)-4-methyl-pyrrolidin-3-yl]-methyl-carbamic acid 4-fluoro-phenyl ester], the Ki was determined as 0.0053 µM. Still for that read-out and setting: for `CN(C(=O)Oc1ccc(F)cc1)[C@@]1(C)CN(C(=O)C2CCN(C(=O)C3(C)CC3)CC2)C[C@@H]1c1ccc(Cl)cc1` (racemic) [Example 7, rac-{(3R,4S)-4-(4-Chloro-phenyl)-3-methyl-1-[1-(1-methyl-cyclopropanecarbonyl)-piperidine-4-carbonyl]-pyrrolidin-3-yl}-methyl-carbamic acid 4-fluoro-phenyl ester] the value was 0.005 µM; for `CN(C(=O)Oc1ccc(F)cc1)[C@@H]1CN(C(=O)C2CCN(c3ccc(C(F)(F)F)cn3)CC2)C[C@@]1(C)c1ccc(Cl)cc1` (racemic) [Example 33, rac-[(3S,4R)-4-(4-Chloro-phenyl)-4-methyl-1-(5′-trifluoromethyl-3,4,5,6-tetrahydro-2H-[1,2′]bipyridinyl-4-carbonyl)-pyrrolidin-3-yl]-methyl-carbamic acid 4-fluoro-phenyl ester], 0.02 µM. Consider `CN(C(=O)Oc1ccc(F)cc1)[C@@]1(C)CN(C(=O)C2CCOCC2)C[C@@H]1c1ccc(Cl)cc1` (racemic) [Example 5, rac-[(3R,4S)-4-(4-Chloro-phenyl)-3-methyl-1-(tetrahydro-pyran-4-carbonyl)-pyrrolidin-3-yl]-methyl-carbamic acid 4-fluoro-phenyl ester], for which the Ki came out at 0.0864 µM.

As to `COc1ccc(N2CCC(C(=O)N3C[C@H](c4ccc(Cl)cc4)[C@@](C)(N(C)C(=O)Oc4ccc(F)cc4)C3)CC2)nn1` (racemic) [Example 19, rac-{(3R,4S)-4-(4-Chloro-phenyl)-1-[1-(6-methoxy-pyridazin-3-yl)-piperidine-4-carbonyl]-3-methyl-pyrrolidin-3-yl}-methyl-carbamic acid 4-fluoro-phenyl ester], the Ki amounted to 0.0129 µM. Still for that read-out and setting: the result for `Cc1ccc(N2CCC(C(=O)N3C[C@H](c4ccc(Cl)cc4)[C@@](C)(N(C)C(=O)Oc4ccc(F)cc4)C3)CC2)nc1` (racemic) [Example 8, rac-[(3R,4S)-4-(4-Chloro-phenyl)-3-methyl-1-(5′-methyl-3,4,5,6-tetrahydro-2H-[1,2′]bipyridinyl-4-carbonyl)-pyrrolidin-3-yl]-methyl-carbamic acid 4-fluoro-phenyl ester] reads 0.013 µM.

A word on the Ki: it is the equilibrium dissociation constant of an inhibitor or competing ligand from its target.

These data come from patent US8618303B2, “Pyrrolidine derivatives” (Hoffmann-La Roche Inc., priority 2011, dated 2013).
